Measured values: patent US20230102554A1 (GB002, INC., priority 2019, published 2023)

Tests used:
[1] = biological target: T1, Human PDGFRβ, cytoplasmic domain (GST-PDGFRβ) (Homo sapiens, UniProt P09619); assay: Human PDGFRβ biochemical inhibition assay (off-chip Mobility Shift Assay)
T1 construct: made in house
Outline: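 GST-tagged cytoplasmic domain (aa 557-1106) from baculovirus was incubated 1 h at room temperature with compound, CSKtide, ATP at Km and Mg²⁺ in HEPES buffer, pH 7.5. Phosphorylated and unphosphorylated peptide were separated by off-chip mobility shift, and the product ratio P/(P+S) gave percent inhibition.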

[2] = biological target: T2, Human PDGFRα, cytoplasmic domain (GST-PDGFRα) (Homo sapiens, UniProt P16234); assay: Human PDGFRα biochemical inhibition assay (off-chip Mobility Shift Assay)
T2 construct: made in house
T2 sequence (P16234 550-1089 T674I): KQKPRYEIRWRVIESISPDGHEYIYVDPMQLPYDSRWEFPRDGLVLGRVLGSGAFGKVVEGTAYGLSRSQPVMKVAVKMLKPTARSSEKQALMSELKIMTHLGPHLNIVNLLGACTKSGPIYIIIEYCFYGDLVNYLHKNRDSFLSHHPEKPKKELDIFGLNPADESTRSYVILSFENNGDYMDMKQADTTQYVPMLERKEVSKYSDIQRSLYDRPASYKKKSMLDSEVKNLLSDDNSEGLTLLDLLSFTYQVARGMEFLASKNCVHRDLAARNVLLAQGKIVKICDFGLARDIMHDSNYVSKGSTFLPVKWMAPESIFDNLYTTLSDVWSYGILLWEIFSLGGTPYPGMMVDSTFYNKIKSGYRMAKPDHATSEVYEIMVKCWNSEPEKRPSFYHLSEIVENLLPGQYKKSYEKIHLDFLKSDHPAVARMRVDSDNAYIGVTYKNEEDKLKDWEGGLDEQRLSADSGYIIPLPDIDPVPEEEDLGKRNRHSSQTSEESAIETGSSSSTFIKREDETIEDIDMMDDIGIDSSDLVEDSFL

T1 sequence (P09619 with tags, fused parts or gaps): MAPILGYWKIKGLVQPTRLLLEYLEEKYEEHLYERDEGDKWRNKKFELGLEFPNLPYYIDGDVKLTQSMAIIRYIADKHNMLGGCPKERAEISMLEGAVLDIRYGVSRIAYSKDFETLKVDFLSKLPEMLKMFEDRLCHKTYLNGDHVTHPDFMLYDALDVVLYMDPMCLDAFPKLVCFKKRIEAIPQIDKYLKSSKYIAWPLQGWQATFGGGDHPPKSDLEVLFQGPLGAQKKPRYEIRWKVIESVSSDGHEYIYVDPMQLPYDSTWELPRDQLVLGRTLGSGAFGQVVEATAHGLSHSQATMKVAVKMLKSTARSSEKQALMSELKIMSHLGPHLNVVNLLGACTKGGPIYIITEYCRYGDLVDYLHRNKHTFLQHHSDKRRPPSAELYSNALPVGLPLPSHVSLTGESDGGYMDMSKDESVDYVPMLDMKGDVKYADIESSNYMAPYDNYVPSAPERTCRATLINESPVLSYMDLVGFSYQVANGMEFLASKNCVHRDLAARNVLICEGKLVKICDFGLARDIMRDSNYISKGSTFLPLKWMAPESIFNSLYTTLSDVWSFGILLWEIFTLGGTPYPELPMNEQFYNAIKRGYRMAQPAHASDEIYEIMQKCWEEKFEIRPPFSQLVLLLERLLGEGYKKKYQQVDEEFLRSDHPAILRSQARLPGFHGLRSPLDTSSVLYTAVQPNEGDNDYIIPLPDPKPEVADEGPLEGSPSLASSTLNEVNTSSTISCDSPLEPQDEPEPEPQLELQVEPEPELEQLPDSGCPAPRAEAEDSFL

SMILES | IC50 [1] | IC50 [2]
CCn1cc2ncc(N[C@@H](C)c3cc(NC(=O)Cc4cc(C)c(C)cn4)ccc3C)nc2n1 [Compound 694, (S)-2-(4,5-dimethylpyridin-2-yl)-N-(3-(1-((2-ethyl-2H-pyrazolo[3,4-b]pyrazin-6-yl)amino)ethyl)-4-methylphenyl) acetamide] | < 300 nM | < 300 nM
CCn1cc2ncc(N[C@@H](C)c3cccc(NC(=O)c4cnc(C5OCCO5)s4)c3)nc2n1 [Compound 400, (S)-2-(1,3-dioxolan-2-yl)-N-(3-(1-((2-ethyl-2H-pyrazolo[3,4-b]pyrazin-6-yl)amino)ethyl)phenyl)thiazole-5-carboxamide] | ≥ 1000 nM | 300 to 1000 nM
CCn1cc2ncc(N[C@@H](C)c3cc(NC(=O)Cc4ccc(C(F)(F)F)cn4)ccc3F)nc2n1 [Compound 654, (S)-N-(3-(1-((2-ethyl-2H-pyrazolo[3,4-b]pyrazin-6-yl)amino)ethyl)-4-fluorophenyl)-2-(5-(trifluoromethyl)pyridin-2-yl) acetamide] | ≥ 1000 nM | < 300 nM
Cc1cncc(C(=O)Nc2cccc([C@H](C)Nc3cnn4cc(-c5cnn(C)c5)ccc34)c2)c1 [Compound 746, (S)-5-methyl-N-(3-(1-((6-(1-methyl-1H-pyrazol-4-yl)pyrazolo[1,5-a]pyridin-3-yl)amino)ethyl)phenyl) nicotinamide] | < 300 nM | < 300 nM
CCn1cc2ncc(N[C@@H](C)c3cc(NC(=O)c4ccc(C(F)(F)F)nc4)ccc3C)nc2n1 [Compound 455, (S)-N-(3-(1-((2-ethyl-2H-pyrazolo[3,4-b]pyrazin-6-yl)amino)ethyl)-4-methylphenyl)-6-(trifluoromethyl)nicotinamide] | < 300 nM | < 300 nM
CCn1cc2ncc(N[C@@H](C)c3cc(NC(=O)Cc4ccc5c(n4)CCC5)ccc3C)nc2n1 [Compound 719, (S)-2-(6,7-dihydro-5H-cyclopenta[b]pyridin-2-yl)-N-(3-(1-((2-ethyl-2H-pyrazolo[3,4-b]pyrazin-6-yl)amino)ethyl)-4-methylphenyl)acetamide] | < 300 nM | < 300 nM
CCn1cc2ncc(N[C@@H](C)c3cc(NC(=O)c4cnc(C(F)(F)F)c(C)c4)ccc3F)nc2n1 [Compound 335, (S)-N-(3-(1-((2-ethyl-2H-pyrazolo[3,4-b]pyrazin-6-yl)amino)ethyl)-4-fluorophenyl)-5-methyl-6-(trifluoromethyl) nicotinamide] | < 300 nM | < 300 nM
CCn1cc2ncc(N[C@@H](C)c3cccc(NC(=O)c4ccc(CN5CCOCC5)cc4)c3)nc2n1 [Compound 374, (S)-N-(3-(1-((2-ethyl-2H-pyrazolo[3,4-b]pyrazin-6-yl)amino)ethyl)phenyl)-4-(morpholinomethyl)benzamide] | 300 to 1000 nM | 300 to 1000 nM
CCn1cc2ncc(N[C@@H](C)c3cc(NC(=O)c4ccc(C(F)(F)F)nc4)cc(F)c3F)nc2n1 [Compound 491, (S)-N-(3-(1-((2-ethyl-2H-pyrazolo[3,4-b]pyrazin-6-yl)amino)ethyl)-4,5-difluorophenyl)-6-(trifluoromethyl)nicotinamide] | 300 to 1000 nM | 300 to 1000 nM
CCn1cc2ncc(N[C@@H](C)c3cccc(NC(=O)c4ccc(N5CCN(C(=O)OC(C)(C)C)CC5)nc4)c3)nc2n1 [Compound 378, tert-butyl (S)-4-(5-((3-(1-((2-ethyl-2H-pyrazolo[3,4-b]pyrazin-6-yl)amino)ethyl)phenyl)carbamoyl)pyridin-2-yl) piperazine-1-carboxylate] | 300 to 1000 nM | < 300 nM

Next, values leading:

IC50 [1] | IC50 [2] | SMILES
≥ 1000 nM | ≥ 1000 nM | CCn1cc2ncc(N[C@@H](C)c3cccc(NC(=O)Cc4ccncc4)c3)nc2n1 [Compound 644, (S)-N-(3-(1-((2-ethyl-2H-pyrazolo[3,4-b]pyrazin-6-yl)amino)ethyl)phenyl)-2-(pyridin-4-yl)acetamide]
< 300 nM | < 300 nM | Cc1cc(C(=O)Nc2cccc([C@H](C)Nc3cnc4cnn(C)c4n3)c2)cnc1CN1CCN(C)CC1 [Compound 243, (S)-5-methyl-N-(3-(1-((1-methyl-1H-pyrazolo[3,4-b]pyrazin-6-yl)amino)ethyl)phenyl)-6-((4-methylpiperazin-1-yl)methyl)nicotinamide]
< 300 nM | < 300 nM | Cc1cncc(C(=O)Nc2cccc([C@H](C)Nc3cnc4cnn(-c5ccccc5)c4n3)c2)c1 [Compound 271, (S)-5-methyl-N-(3-(1-((1-phenyl-1H-pyrazolo[3,4-b]pyrazin-6-yl)amino)ethyl)phenyl)nicotinamide]
< 300 nM | < 300 nM | Cc1cc2ncc(N[C@@H](C)c3cccc(NC(=O)c4cnn(C5CCC5)c4)c3)nc2s1 [Compound 609, (S)-1-cyclobutyl-N-(3-(1-((6-methylthieno[2,3-b]pyrazin-3-yl)amino)ethyl)phenyl)-1H-pyrazole-4-carboxamide]
< 300 nM | < 300 nM | COc1cncc(C(=O)Nc2cccc([C@H](C)Nc3cnc4[nH]cc(-c5cnn(C)c5)c4n3)c2)c1 [Compound 586, (S)-5-methoxy-N-(3-(1-((7-(1-methyl-1H-pyrazol-4-yl)-5H-pyrrolo[2,3-b]pyrazin-2-yl)amino)ethyl)phenyl) nicotinamide]
≥ 1000 nM | 300 to 1000 nM | COC(=O)c1ccc(C(=O)Nc2cccc([C@H](C)Nc3cnc4cnn(C)c4n3)c2)cn1 [Compound 212, methyl (S)-5-((3-(1-((1-methyl-1H-pyrazolo[3,4-b]pyrazin-6-yl)amino)ethyl)phenyl)carbamoyl) picolinate]
< 300 nM | < 300 nM | Cc1cc(C(=O)Nc2cccc([C@H](C)Nc3cnc4[nH]cc(C)c4n3)c2)cnc1C(F)(F)F [Compound 559, (S)-5-methyl-N-(3-(1-((7-methyl-5H-pyrrolo[2,3-b]pyrazin-2-yl)amino)ethyl)phenyl)-6-(trifluoromethyl) nicotinamide]
< 300 nM | < 300 nM | Cc1cc(C(=O)Nc2cccc([C@H](C)Nc3cnc4cnn(C)c4n3)c2)cnc1C [Compound 206, (S)-5,6-dimethyl-N-(3-(1-((1-methyl-1H-pyrazolo[3,4-b]pyrazin-6-yl)amino)ethyl)phenyl)nicotinamide]
< 300 nM | < 300 nM | Cc1cncc(C(=O)Nc2cccc([C@H](C)Nc3cnc4cnn(C)c4n3)c2)c1 [Compound 8, (S)-5-methyl-N-(3-(1-((1-methyl-1H-pyrazolo[3,4-b]pyrazin-6-yl)amino)ethyl)phenyl)nicotinamide]
< 300 nM | < 300 nM | CCOc1ccc(C(=O)Nc2cccc([C@H](C)Nc3cnc4[nH]nc(C)c4n3)c2)cn1 [Compound 537, (S)-6-ethoxy-N-(3-(1-((3-methyl-1H-pyrazolo[3,4-b]pyrazin-5-yl)amino)ethyl)phenyl)nicotinamide]
300 to 1000 nM | < 300 nM | CCn1cc2ncc(N[C@@H](C)c3cccc(NC(=O)Cc4cccc(C(F)(F)F)c4)c3)nc2n1 [Compound 630, (S)-N-(3-(1-((2-ethyl-2H-pyrazolo[3,4-b]pyrazin-6-yl)amino)ethyl)phenyl)-2-(3-(trifluoromethyl)phenyl) acetamide]
< 300 nM | < 300 nM | CCn1cc2ncc(N[C@@H](C)c3cccc(NC(=O)c4cnc(OC(C)C)c(C)c4)c3)nc2n1 [Compound 327, (S)-N-(3-(1-((2-ethyl-2H-pyrazolo[3,4-b]pyrazin-6-yl)amino)ethyl)phenyl)-6-isopropoxy-5-methylnicotinamide]
